# From EP0862417B1, “PHARMACEUTICAL COMPOSITION FOR TOPICAL APPLICATION” (Reckitt Benckiser Healthcare (UK) Limited, priority 1995, dated 1997)
# Assay: Supersaturation potential of a triclosan solution (calculated from solubilities)
# Assay type: physicochemical
# Details: skin pH e.g. pH 5.5; 200ppm triclosan solution at pH 10 as starting composition
# Description: The supersaturation potential of a solution at pH 10 containing 200ppm triclosan was calculated by dividing the concentration of triclosan in that solution by the concentration of triclosan in the solutions at lower pHs.
smiles,measurement,value
Oc1cc(Cl)ccc1Oc1ccc(Cl)cc1Cl [triclosan],degree of supersaturation achievable at a skin pH,30 X
